Columns and labels:
Assay in all cases: radiometric filter-binding kinase assay
LCK (mouse) = conditions: accession and sequence are those of the human protein
PIM3 (human) = PIM3 (human) (UniProt Q86V86)
AURKB (human) = AURKB (human) (UniProt Q96GD4)
MAPK10 (human) = MAPK10 (human) (UniProt P53779)
EPHB2 (human) = EPHB2 (human) (UniProt P29323)
BRSK2 (human) = BRSK2 (human) (UniProt Q8IWQ3)
DYRK3 (human) = DYRK3 (human) (UniProt O43781)
[1] = system: PAK2 (human), Q13177 [T402E]
CSNK2A1 (human) = CSNK2A1 (human) (UniProt P68400)
Chain of CSNK2A1 (human) (P68400 whole entry, looked up): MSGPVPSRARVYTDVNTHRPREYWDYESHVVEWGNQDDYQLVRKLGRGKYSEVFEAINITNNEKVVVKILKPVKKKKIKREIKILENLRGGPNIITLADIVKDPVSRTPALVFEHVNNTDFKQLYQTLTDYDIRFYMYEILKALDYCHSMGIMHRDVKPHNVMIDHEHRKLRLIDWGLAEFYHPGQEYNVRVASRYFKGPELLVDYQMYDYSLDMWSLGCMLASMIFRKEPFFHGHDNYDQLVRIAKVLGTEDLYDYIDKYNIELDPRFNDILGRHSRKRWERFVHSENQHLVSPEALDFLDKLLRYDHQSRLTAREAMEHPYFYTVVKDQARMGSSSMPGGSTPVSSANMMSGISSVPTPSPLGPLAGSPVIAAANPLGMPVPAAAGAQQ

GCK (human) = GCK (human) (UniProt Q12851)
MAPK11 (human) = MAPK11 (human) (UniProt Q15759)
Chain of MAPK11 (human) (Q15759 whole entry, looked up): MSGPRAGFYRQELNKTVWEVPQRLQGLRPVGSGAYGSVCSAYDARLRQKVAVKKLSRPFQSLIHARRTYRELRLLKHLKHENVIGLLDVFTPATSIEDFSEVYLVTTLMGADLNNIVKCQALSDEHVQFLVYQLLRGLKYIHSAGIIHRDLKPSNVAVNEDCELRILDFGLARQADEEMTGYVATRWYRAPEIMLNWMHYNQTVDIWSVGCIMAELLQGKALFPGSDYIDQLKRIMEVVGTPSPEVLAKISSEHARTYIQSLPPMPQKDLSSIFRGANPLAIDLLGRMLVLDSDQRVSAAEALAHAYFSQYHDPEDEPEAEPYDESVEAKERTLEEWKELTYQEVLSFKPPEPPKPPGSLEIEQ

ROCK2 (rat) = conditions: accession and sequence are those of the human protein
CLK2 (human) = CLK2 (human) (UniProt P49760)
HIPK2 (human) = HIPK2 (human) (UniProt Q9H2X6)
DAPK1 (human) = DAPK1 (human) (UniProt P53355)
Chain of DAPK1 (human) (P53355 whole entry, looked up): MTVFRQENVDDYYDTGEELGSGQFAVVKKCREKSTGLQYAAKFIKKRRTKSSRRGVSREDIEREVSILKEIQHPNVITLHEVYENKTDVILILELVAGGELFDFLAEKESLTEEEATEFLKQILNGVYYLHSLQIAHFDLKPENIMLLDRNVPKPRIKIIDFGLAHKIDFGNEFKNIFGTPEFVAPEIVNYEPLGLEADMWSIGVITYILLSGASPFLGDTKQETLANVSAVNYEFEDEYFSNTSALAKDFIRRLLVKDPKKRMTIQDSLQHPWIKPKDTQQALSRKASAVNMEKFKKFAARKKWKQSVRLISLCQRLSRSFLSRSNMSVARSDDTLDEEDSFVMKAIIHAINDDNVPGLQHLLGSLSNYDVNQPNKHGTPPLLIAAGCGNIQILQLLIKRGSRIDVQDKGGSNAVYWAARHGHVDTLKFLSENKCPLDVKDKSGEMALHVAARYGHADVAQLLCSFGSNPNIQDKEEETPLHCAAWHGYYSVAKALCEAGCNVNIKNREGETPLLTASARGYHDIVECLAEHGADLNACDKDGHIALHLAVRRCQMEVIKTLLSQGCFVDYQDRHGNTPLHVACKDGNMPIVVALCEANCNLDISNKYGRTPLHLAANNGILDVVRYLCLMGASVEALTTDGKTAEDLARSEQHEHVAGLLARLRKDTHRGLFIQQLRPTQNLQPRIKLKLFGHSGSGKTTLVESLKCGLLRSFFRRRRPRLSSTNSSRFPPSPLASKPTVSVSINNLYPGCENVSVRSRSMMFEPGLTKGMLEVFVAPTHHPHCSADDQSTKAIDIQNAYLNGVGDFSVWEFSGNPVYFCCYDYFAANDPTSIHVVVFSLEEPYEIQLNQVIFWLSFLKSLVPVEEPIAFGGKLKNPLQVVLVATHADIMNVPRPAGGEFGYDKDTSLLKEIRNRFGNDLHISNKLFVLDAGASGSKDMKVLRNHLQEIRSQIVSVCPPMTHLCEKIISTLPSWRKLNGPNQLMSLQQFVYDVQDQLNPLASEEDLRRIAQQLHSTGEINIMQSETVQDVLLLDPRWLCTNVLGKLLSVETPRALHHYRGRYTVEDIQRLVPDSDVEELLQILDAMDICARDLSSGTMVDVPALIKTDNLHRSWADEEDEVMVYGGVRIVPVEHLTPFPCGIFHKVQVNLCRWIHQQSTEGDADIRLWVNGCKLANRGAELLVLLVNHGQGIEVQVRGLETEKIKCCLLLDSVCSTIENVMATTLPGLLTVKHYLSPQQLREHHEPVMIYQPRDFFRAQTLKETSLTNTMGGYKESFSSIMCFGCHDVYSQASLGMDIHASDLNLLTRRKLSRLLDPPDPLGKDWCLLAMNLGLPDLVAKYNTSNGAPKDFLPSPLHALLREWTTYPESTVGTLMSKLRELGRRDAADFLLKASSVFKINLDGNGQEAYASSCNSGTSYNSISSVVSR

TAOK1 (human) = TAOK1 (human) (UniProt Q7L7X3)
Chain of TAOK1 (human) (Q7L7X3 whole entry, looked up): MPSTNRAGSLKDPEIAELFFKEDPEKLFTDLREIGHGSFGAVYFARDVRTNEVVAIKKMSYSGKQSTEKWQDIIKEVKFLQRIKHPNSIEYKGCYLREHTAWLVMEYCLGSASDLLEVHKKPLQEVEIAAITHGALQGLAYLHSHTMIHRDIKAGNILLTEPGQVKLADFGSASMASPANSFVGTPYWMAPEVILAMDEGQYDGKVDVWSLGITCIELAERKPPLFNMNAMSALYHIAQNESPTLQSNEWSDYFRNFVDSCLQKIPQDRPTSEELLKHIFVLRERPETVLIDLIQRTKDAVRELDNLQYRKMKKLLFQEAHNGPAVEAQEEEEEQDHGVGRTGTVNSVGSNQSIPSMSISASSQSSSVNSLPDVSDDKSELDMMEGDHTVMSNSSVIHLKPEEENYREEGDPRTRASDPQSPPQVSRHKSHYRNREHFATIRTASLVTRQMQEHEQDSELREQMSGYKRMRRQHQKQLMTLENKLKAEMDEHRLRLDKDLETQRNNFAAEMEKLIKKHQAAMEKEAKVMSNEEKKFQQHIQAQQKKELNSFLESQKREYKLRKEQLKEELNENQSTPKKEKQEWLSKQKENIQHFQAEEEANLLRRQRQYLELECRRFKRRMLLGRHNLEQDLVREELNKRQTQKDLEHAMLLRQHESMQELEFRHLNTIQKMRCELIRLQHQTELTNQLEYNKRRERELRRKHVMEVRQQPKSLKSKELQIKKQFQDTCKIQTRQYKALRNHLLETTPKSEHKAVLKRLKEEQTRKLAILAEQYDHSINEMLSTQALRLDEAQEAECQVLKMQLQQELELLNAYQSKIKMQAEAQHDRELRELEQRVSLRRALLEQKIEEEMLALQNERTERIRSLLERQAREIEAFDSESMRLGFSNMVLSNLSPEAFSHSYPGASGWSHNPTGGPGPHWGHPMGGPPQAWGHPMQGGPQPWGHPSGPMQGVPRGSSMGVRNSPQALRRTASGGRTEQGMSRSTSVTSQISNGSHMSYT

MAPK13 (human) = MAPK13 (human) (UniProt O15264)
Chain of MAPK13 (human) (O15264 whole entry, looked up): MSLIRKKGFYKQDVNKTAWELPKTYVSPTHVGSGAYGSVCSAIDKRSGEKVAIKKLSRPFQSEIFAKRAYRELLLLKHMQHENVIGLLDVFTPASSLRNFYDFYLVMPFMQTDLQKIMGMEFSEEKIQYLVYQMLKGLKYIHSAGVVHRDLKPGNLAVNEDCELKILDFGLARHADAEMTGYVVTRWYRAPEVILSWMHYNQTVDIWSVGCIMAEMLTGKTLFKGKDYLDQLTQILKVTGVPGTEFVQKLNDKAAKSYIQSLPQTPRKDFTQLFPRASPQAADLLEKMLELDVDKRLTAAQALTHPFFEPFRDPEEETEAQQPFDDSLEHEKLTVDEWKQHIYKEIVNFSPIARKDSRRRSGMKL

IGF1R (human) = IGF1R (human) (UniProt P08069); conditions: compound 0.01 µM

Chain of DYRK3 (human) (O43781 whole entry, looked up): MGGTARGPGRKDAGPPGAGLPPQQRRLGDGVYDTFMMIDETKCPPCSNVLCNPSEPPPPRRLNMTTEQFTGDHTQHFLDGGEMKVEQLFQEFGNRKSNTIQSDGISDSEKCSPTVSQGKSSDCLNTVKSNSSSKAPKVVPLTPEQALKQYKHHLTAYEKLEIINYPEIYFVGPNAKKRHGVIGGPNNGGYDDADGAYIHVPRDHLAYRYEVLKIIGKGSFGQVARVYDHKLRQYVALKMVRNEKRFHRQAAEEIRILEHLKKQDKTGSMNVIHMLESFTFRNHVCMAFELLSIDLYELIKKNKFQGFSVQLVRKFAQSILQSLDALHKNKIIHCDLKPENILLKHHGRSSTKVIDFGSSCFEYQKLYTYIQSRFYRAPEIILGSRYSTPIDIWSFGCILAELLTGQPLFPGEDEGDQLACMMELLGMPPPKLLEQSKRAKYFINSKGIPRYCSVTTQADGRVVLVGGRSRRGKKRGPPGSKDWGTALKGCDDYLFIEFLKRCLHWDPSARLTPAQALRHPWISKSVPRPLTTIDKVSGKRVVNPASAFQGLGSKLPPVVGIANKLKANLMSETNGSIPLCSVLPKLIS
Chain of AURKB (human) (Q96GD4 whole entry, looked up): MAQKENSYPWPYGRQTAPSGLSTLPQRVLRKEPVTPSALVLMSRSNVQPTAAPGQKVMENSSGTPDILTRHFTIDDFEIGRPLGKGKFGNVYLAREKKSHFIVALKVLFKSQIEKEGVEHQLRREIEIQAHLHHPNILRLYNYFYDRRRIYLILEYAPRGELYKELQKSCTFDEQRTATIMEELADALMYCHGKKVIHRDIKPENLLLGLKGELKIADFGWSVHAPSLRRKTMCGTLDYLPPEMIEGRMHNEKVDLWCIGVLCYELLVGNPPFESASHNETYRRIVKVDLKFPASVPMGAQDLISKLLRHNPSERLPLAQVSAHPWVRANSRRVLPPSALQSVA
Chain of MAPK10 (human) (P53779 whole entry, looked up): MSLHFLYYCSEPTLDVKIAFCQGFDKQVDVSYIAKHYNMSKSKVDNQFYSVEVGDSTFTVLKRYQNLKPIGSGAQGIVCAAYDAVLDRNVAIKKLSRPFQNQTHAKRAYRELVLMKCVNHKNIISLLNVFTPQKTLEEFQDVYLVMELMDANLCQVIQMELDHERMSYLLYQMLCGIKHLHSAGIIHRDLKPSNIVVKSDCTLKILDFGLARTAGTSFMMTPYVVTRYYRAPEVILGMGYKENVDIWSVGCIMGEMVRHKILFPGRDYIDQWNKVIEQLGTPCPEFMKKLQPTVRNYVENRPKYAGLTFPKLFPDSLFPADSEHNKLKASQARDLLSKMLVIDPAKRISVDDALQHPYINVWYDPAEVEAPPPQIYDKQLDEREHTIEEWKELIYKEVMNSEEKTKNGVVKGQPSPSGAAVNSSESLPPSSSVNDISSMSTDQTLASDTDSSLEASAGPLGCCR

COc1cc(O)c2c(c1)[C@H]1OC1C[C@H](O)[C@H](O)C(=O)/C=C\C[C@H](C)OC2=O (stereo partly specified)
residual activity (LCK (mouse); compound 0.01 µM): 79% | residual activity (LCK (mouse); compound 0.1 µM): 93% | residual activity (LCK (mouse); compound 1.0 µM): 69% | residual activity (PIM3 (human); compound 0.01 µM): 92% | residual activity (PIM3 (human); compound 0.1 µM): 98% | residual activity (PIM3 (human); compound 1.0 µM): 99% | residual activity (AURKB (human); compound 0.01 µM): 90% | residual activity (AURKB (human); compound 0.1 µM): 92% | residual activity (AURKB (human); compound 1.0 µM): 107% | residual activity (MAPK10 (human); compound 0.01 µM): 89% | residual activity (MAPK10 (human); compound 0.1 µM): 101% | residual activity (MAPK10 (human); compound 1.0 µM): 107% | residual activity (EPHB2 (human); compound 0.01 µM): 124% | residual activity (EPHB2 (human); compound 0.1 µM): 118% | residual activity (EPHB2 (human); compound 1.0 µM): 115% | residual activity (BRSK2 (human); compound 0.01 µM): 114% | residual activity (BRSK2 (human); compound 0.1 µM): 93% | residual activity (BRSK2 (human); compound 1.0 µM): 96% | residual activity (DYRK3 (human); compound 0.01 µM): 113% | residual activity (DYRK3 (human); compound 0.1 µM): 109% | residual activity (DYRK3 (human); compound 1.0 µM): 124% | residual activity ([1]; compound 0.01 µM): 99% | residual activity ([1]; compound 0.1 µM): 94% | residual activity ([1]; compound 1.0 µM): 95% | residual activity (CSNK2A1 (human); compound 0.01 µM): 123% | residual activity (CSNK2A1 (human); compound 0.1 µM): 121% | residual activity (CSNK2A1 (human); compound 1.0 µM): 133% | residual activity (GCK (human); compound 0.01 µM): 114% | residual activity (GCK (human); compound 0.1 µM): 105% | residual activity (GCK (human); compound 1.0 µM): 97% | residual activity (MAPK11 (human); compound 0.01 µM): 88% | residual activity (MAPK11 (human); compound 0.1 µM): 93% | residual activity (MAPK11 (human); compound 1.0 µM): 98% | residual activity (ROCK2 (rat); compound 0.01 µM): 91% | residual activity (ROCK2 (rat); compound 0.1 µM): 94% | residual activity (ROCK2 (rat); compound 1.0 µM): 99% | residual activity (CLK2 (human); compound 0.01 µM): 94% | residual activity (CLK2 (human); compound 0.1 µM): 100% | residual activity (HIPK2 (human); compound 0.01 µM): 96% | residual activity (HIPK2 (human); compound 0.1 µM): 86% | residual activity (HIPK2 (human); compound 1.0 µM): 72% | residual activity (DAPK1 (human); compound 0.01 µM): 82% | residual activity (DAPK1 (human); compound 0.1 µM): 108% | residual activity (DAPK1 (human); compound 1.0 µM): 96% | residual activity (TAOK1 (human); compound 0.01 µM): 106% | residual activity (TAOK1 (human); compound 0.1 µM): 101% | residual activity (TAOK1 (human); compound 1.0 µM): 100% | residual activity (MAPK13 (human); compound 0.01 µM): 101% | residual activity (MAPK13 (human); compound 0.1 µM): 100% | residual activity (MAPK13 (human); compound 1.0 µM): 108% | residual activity (IGF1R (human)): 103%

From the kinase profiling compilation of Christmann-Franck et al. (2016)
